Experimental data: patent publication US20250197864A1, “LNCRNA TRANSCRIPTS IN MELANOMAGENESIS” (The Regents of the University of California, priority 2021, published 2025)

Test system: gene expression in D04 melanoma cells
Test: RNA-Seq differential expression analysis (DESeq2)
Assay type: cell-based, human
Procedure: Total RNA was isolated using the RNeasy mini Kit (QIAGEN) following the manufacturer's protocol. Quality check for extracted RNA was done using 2100 Bioanalyzer (Agilent Technologies, USA) or Tapestation System (Agilent Technologies, USA). […] For samples used for identification of MAPK-responsive lncRNAs, paired-end, 101-bp sequencing was performed by Centrillion Genomic Services (Centrillion Biosciences, USA) on an Illumina HiSeq 2000. For DE gene analysis of ASO-transfected D04 samples, paired-end, 2×150-bp sequencing was performed by Genewiz (USA) on a Illumina HiSeq.
Sequence reads were aligned to the human genome (hg19) using TopHat (Version 2.0.11).
Differential expression (DE) analysis was done using DESeq2. Differentially expressed genes were defined by more than 1.5-fold changes (log 2 >0.58 or <−0.58) in expression with FDR<0.05. GO term analysis was done using DAVID Functional Annotation Clustering analysis.
To examine the biomolecular changes upon TRASH-inhibition in melanoma, D04 cells were treated with TRASH-ASOs (SEQ ID NO:15) and Control-ASOs and RNA was extracted and used for RNA-Seq. […] These GO terms consisted of genes encoding growth factors, tyrosine kinases, G protein coupled receptor subunits, and collagen subunits. Scatter plot diagram showing differential gene expression after TRASH-ASO treatment compared to Control-ASO treatment. (cut-off for significance was adjusted p-value <0.05). Data was obtained from RNA-Seq of D04 melanoma cells, treatment period was three days. (FIG. 5c)

With “GACTGGAGATAATTAA (gapmer, pattern not given here) [SEQ ID NO: 15, GapmeR ASO targeting AC004540.4 (TRASH), exon region of both isoforms; used for in vitro experiments]” the log2FoldChange (PPM1L (ENSG00000163590)) was −0.7017, the log2FoldChange (PRICKLE2 (ENSG00000163637)) was −0.6639 and the log2FoldChange (PRR5L (ENSG00000135362)) was −0.6328. The log2FoldChange (PTPRN2 (ENSG00000155093)) was 2.844, the log2FoldChange (PTPRR (ENSG00000153233)) was 1.4591 and the log2FoldChange (PURPL (ENSG00000250337)) was −0.6494. The log2FoldChange (PYROXD2 (ENSG00000119943)) was −0.6602, the log2FoldChange (RAB11FIP3 (ENSG00000090565)) was −0.5869 and the log2FoldChange (RAB26 (ENSG00000167964)) was −0.6129. The log2FoldChange (RAB39B (ENSG00000155961)) was 2.06, the log2FoldChange (RASEF (ENSG00000165105)) was 1.674 and the log2FoldChange (RASL10B (ENSG00000270885)) was −0.6526. The log2FoldChange (RBMS3 (ENSG00000144642)) was −0.6061, the log2FoldChange (RFTN2 (ENSG00000162944)) was −0.6802 and the log2FoldChange (RGS4 (ENSG00000117152)) was 1.366. The log2FoldChange (RGS5 (ENSG00000143248)) was −0.6262, the log2FoldChange (RINL (ENSG00000187994)) was 1.242 and the log2FoldChange (ROBO4 (ENSG00000154133)) was 2.692. For the same sequence, the log2FoldChange (RPLPOP2 (ENSG00000243742)) was 1.744, the log2FoldChange (RUNDC3A (ENSG00000108309)) was 1.302 and the log2FoldChange (S1PR2 (ENSG00000267534)) was −0.6769. It also gave a log2FoldChange (S100A3 (ENSG00000188015)) of −0.6246, a log2FoldChange (SAMD5 (ENSG00000203727)) of −0.6969 and a log2FoldChange (SAMD9L (ENSG00000177409)) of −0.5978. It also gave a log2FoldChange (SBSN (ENSG00000189001)) of 1.621, a log2FoldChange (SBSPON (ENSG00000164764)) of −0.705 and a log2FoldChange (SCG2 (ENSG00000171951)) of −0.6659. For the same sequence, the log2FoldChange (SCG5 (ENSG00000166922)) was 1.621, the log2FoldChange (SCN1B (ENSG00000105711)) was −0.608 and the log2FoldChange (SCN4A (ENSG00000007314)) was 2.301. It also gave a log2FoldChange (SDCCAG8 (ENSG00000054282)) of −0.7066, a log2FoldChange (SERPINB7 (ENSG00000166396)) of 1.415 and a log2FoldChange (SERPINI2 (ENSG00000114204)) of 2.645. The log2FoldChange (SH2D1B (ENSG00000198574)) was 1.495, the log2FoldChange (SHROOM4 (ENSG00000158352)) was −0.6228 and the log2FoldChange (SIGLEC15 (ENSG00000197046)) was 2.101. The log2FoldChange (SIL1 (ENSG00000120725)) was −0.6521, the log2FoldChange (SLAMF7 (ENSG00000026751)) was 2.821 and the log2FoldChange (SLAMF9 (ENSG00000162723)) was 2.487. It also gave a log2FoldChange (SLC45A2 (ENSG00000164175)) of −0.6697, a log2FoldChange (SLCO4C1 (ENSG00000173930)) of −0.6425 and a log2FoldChange (SOCS2 (ENSG00000120833)) of −0.5921. For the same sequence, the log2FoldChange (SOCS3 (ENSG00000184557)) was −0.6206, the log2FoldChange (SOX2 (ENSG00000181449)) was −0.7006 and the log2FoldChange (SPANXC (ENSG00000198573)) was 1.331. For the same sequence, the log2FoldChange (SPINK1 (ENSG00000164266)) was 3.07, the log2FoldChange (SPINT2 (ENSG00000167642)) was 2.192 and the log2FoldChange (SPRY2 (ENSG00000136158)) was −0.6059. The log2FoldChange (SPRY4 (ENSG00000187678)) was −0.6537, the log2FoldChange (ST6GALNAC2 (ENSG00000070731)) was −0.6963 and the log2FoldChange (ST6GALNAC5 (ENSG00000117069)) was −0.6397. It also gave a log2FoldChange (STRA6 (ENSG00000137868)) of −0.6369, a log2FoldChange (STX17-AS1 (ENSG00000255145)) of 1.8172 and a log2FoldChange (SULT1A1 (ENSG00000196502)) of −0.7045. It also gave a log2FoldChange (SYNGR1 (ENSG00000100321)) of −0.6288, a log2FoldChange (SYT11 (ENSG00000132718)) of 1.326 and a log2FoldChange (SYT16 (ENSG00000139973)) of 1.62. It also gave a log2FoldChange (TEK (ENSG00000120156)) of −0.6347, a log2FoldChange (TENM1 (ENSG00000009694)) of −0.7059 and a log2FoldChange (TFAP2E (ENSG00000116819)) of −0.6597. It also gave a log2FoldChange (TGFB3 (ENSG00000119699)) of −0.6408, a log2FoldChange (TGFBR3 (ENSG00000069702)) of −0.639 and a log2FoldChange (THSD4 (ENSG00000187720)) of −0.6139. The log2FoldChange (TINAGL1 (ENSG00000142910)) was 1.287, the log2FoldChange (TM4SF1 (ENSG00000169908)) was 1.389 and the log2FoldChange (TMC8 (ENSG00000167895)) was 1.259. The log2FoldChange (TMEM117 (ENSG00000139173)) was −0.6405, the log2FoldChange (TMEM135 (ENSG00000166575)) was −0.6788 and the log2FoldChange (TNFRSF11B (ENSG00000164761)) was −0.5845. The log2FoldChange (TNFSF8 (ENSG00000106952)) was 1.66, the log2FoldChange (TNFSF10 (ENSG00000121858)) was −0.6562 and the log2FoldChange (TNFSF11 (ENSG00000120659)) was −0.6111. It also gave a log2FoldChange (TOM1L2 (ENSG00000175662)) of −0.6126, a log2FoldChange (TRIB2 (ENSG00000071575)) of −0.6666 and a log2FoldChange (TRIML2 (ENSG00000179046)) of 2.081. The log2FoldChange (TSPAN9 (ENSG00000011105)) was −0.6484, the log2FoldChange (VIPR2 (ENSG00000106018)) was 1.91 and the log2FoldChange (VWA1 (ENSG00000179403)) was −0.6674. The log2FoldChange (VWCE (ENSG00000167992)) was 1.639, the log2FoldChange (XAF1 (ENSG00000132530)) was −0.6048 and the log2FoldChange (XG (ENSG00000124343)) was 2.256. The log2FoldChange (ZC3H6 (ENSG00000188177)) was −0.6449, the log2FoldChange (ZDHHC11 (ENSG00000188818)) was 1.322 and the log2FoldChange (ZFYVE28 (ENSG00000159733)) was −0.6436. It also gave a log2FoldChange (ZHX2 (ENSG00000178764)) of −0.5891, a log2FoldChange (ZNF165 (ENSG00000197279)) of 1.226 and a log2FoldChange (ZNF185 (ENSG00000147394)) of 1.367. It also gave a log2FoldChange (ZSCAN31 (ENSG00000235109)) of −0.6972.
